Test results published in patent US7087619B2, “Method for the treatment of urinary incontinence” (Endo Pharmaceuticals, Inc., priority 1995, dated 2006).

Assays:
[1] = literature report; cited from earlier work
[2] = test system: female Sprague-Dawley rats; assay: Non-stop transvesical cystometrogram in urethane-anesthetized rats (continuous cystometry); format: in vivo
Method: Ten female Sprague-Dawley rats having a mean weight of 263±19 g were anesthetized with urethane (1.2 g/k, sc.). A midline incision was performed to expose the bladder and a 23G catheter was inserted into the bladder dome for the measurement of intravesical pressure. A non-stop transvesical cystometrogram, as described in J. Pharmacological. Methods, 15, pp. 157-167 (1986), was used, at a filling rate of 0.216 ml/min. of saline, to access the filling and voiding characteristics of the bladder. Through the continuous cystometry method thus afforded, consecutive micturition could be recorded. Dextromethorphan was given at intravenous does of: 1.0, 3.0, 10, 30, 50 mg/kg after the initial baseline micturition sequence was reliably measured for approximately 12 min. From these recordings the absolute values in maximum pressure obtained and the frequency of micturition was measured. A dose response curve illustrating the effect of dextromethorphan on the absolute micturition pressures in the range of 1-50 mg/kg is given in FIG. 1. Data given are mean and SE.

Row | Compound | frequency in micturition [1] | volume evoked micturition reflex ([2]; increasing intravenous doses 1.0-50 mg/kg, cystometrogram, anesthetized rats) | reduction in detrusor pressure ([2]; intravenous 10 mg/kg) [%] | frequency of micturition ([2]; intravenous 1-50 mg/kg, dose response, FIG. 2) | reduction in detrusor pressure ([2]; intravenous dose level of 3 mg/kg) | effect on detrusor pressure at high doses (initial increase before suppression) ([2]; intravenous doses higher than 10 mg/kg) | volume evoked micturition contractions ([2]; intravenous doses in the range of 10-30 mg/kg)
1 | C[C@]12N[C@H](Cc3ccccc31)c1ccccc12 [MK-801] | increase in frequency in micturition |  |  |  |  |  | 
2 | COc1ccc2c(c1)[C@@]13CCCC[C@H]1[C@@H](C2)N(C)CC3 [dextromethorphan, (+)-3-methoxy-N-methylmorphinan] |  | suppressed in a dose sensitive manner | 50 | decrements gradually with respect to dose | significant sustained reduction | bimodal, producing an initial increase in detrusor pressure before suppression | almost totally suppressed
